Assay results from patent publication US12398196B2, “Fused polypeptide with multifunctional activities and use thereof” (NANJING ANJI BIOLOGICAL TECHNOLOGY CO., LTD., priority 2019, dated 2025).
Ends that are not written are not given here.

Tests used:
[1] = system: SD rats with CCl4-induced hepatic fibrosis; experiment: CCl4-induced hepatic fibrosis animal model; format: in vivo; conditions: CCl4 8 weeks, polypeptides 6 mg/kg s.c. once a day, colchicine intragastric 5 times/week
Method: Source and strain: SPF level, SD rats, provided by Shanghai Xipuer-Bikai laboratory Animal Co., Ltd. (laboratory animal license: SCXK (hu) 2013-0016)
There were 10 rats in each group. Modeling was performed on the rats. Each group other than the blank group was injected with 40% CCl4 intraperitoneally twice a week, the first injection was performed at 3 mL/kg, and then administration was performed at 2 mL/kg. Administration was performed for 8 weeks, and a total of 16 injections were provided to induce hepatic fibrosis. After the intraperitoneal injection of CCl4 for the fourth time, polypeptide therapy was started on the next day, and administration was performed by subcutaneous injection once a day until the end of induction. After the intraperitoneal injection of CCl4 for the fourth time, colchicine was administrated on the next day at 200 μg/kg, 5 times a week, and intragastric administration therapy was implemented. After induction for 8 weeks, the administration was stopped. On the second day, the SD rats were dissected, blood was taken, and the liver tissue was taken and stored in a refrigerator at −80° C. for later use. The expressions of AST and ALT in serum and HYP in the rat liver tissue were detected.

[2] = system: SD rats with bleomycin-induced pulmonary fibrosis; experiment: Bleomycin-induced pulmonary fibrosis animal model; format: in vivo; conditions: for Survival rate (%): bleomycin 5 mg/kg intratracheal, polypeptides 10 mg/kg subcutaneous twice a day for 14 days, positive drug Nintedanib intragastric once a day, model group 57.1%; for content of HYP in lung tissues, difference from model group / content of TGF-β1 in serum, difference from model group: polypeptides 10 mg/kg s.c. twice a day, Nintedanib 25 mg/kg intragastric once a day, 14 days
Method: Source and strain: clean SD rats, provided by Comparative Medicine Center of Yangzhou University (laboratory animal production license: SCXK (Su) 2012-0004); Certification of Using of Laboratory Animal: SYXK (Su) 2012-0035).
SD rats were anesthetized by intraperitoneal injection of 1 mL/100 g 4% chloral hydrate. After anesthesia, the rats were fixed and their necks were disinfected by using cotton with 75% alcohol. The skin of the rat neck was longitudinally cut with scissors, and the fascia and muscle were longitudinally bluntly torn with tweezers to expose the trachea. A syringe was inserted into the trachea to inject 5 mg/kg bleomycin, while a blank group was injected with an equal amount of normal saline. Then a rat plate was quickly erected and rotated, the rats' breathing was observed, the neck wound was sterilized after rotation and was sewn, and an amoxicillin anti-inflammatory drug was sprinkled on the suture. After the operation, the rats were put back into a dry and clean cage for resting, waiting was performed for awakening. The rats were awakened after about 1-2 hours, and then fed normally. On the 7th day after modeling, modeling group animals randomly fell into a model group, a Nintedanib positive drug group, polypeptide I, II, III and IV dosage groups, and a normal control group, and the groups were administered separately for an administration cycle of 14 days. Living situations of rats were observed every day and their weights were weighed. After administration for 14 days, the eyeballs were removed and blood was taken, the rats were dissected, and lungs were taken. The content of TGF-β1 in serum and the content of HYP in lung tissues were detected.

[3] = system: SD rats with renal fibrosis; experiment: Renal fibrosis model (ureter ligation); format: in vivo; conditions: 6 mg/kg s.c. twice a day, 14 days
Method: Clean grade male SD rats, purchased from Nanjing Qinglong Mountain Animal Farm, and weighed 180-200 g at the time of purchase, 190-210 g at the beginning of modeling, and 180-200 g at the beginning of administration.
A renal fibrosis animal model was established. SD rats were anesthetized with 4% chloral hydrate, injected with 1 mL/100 g intraperitoneally, fixed to an operation board, and sterilized in an operation area for later use. […] Muscular layers and abdominal walls were sewed layer by layer, the suture was disinfected with alcohol. After SD rats woke up, the rats were put into a cage for feeding. In the blank group, ureter was not ligated, and other steps were the same.
Then, the animals fell into a blank group, a model group, and polypeptide administration groups, with 10 animals in each group, and the administration was started on the second day after the operation, and was performed for 14 days. After administration for 14 days, blood was taken and supernatant was taken to detect the content of TGF-β1 in serum.

[4] = system: mice with myocardial fibrosis; experiment: Isoprenaline-induced myocardial fibrosis model; format: in vivo; conditions: BALB/c mice, isoprenaline 5 mg/kg 7 days; 12 mg/kg s.c. twice a day
Method: 1. Experimental Mice: 10-Week-Old Male BALB/c Mice (with an Average Weight of 20 g).
In the model group, the experimental mice were injected with isoprenaline (ISO) (5 mg/kg) subcutaneously on the back of the mice every day for 7 consecutive days, and the mice were injected with normal saline subcutaneously (200 μL/mouse) every day. In the blank group, normal saline was injected subcutaneously (200 μL/mouse) every day. While a model was made, polypeptide drugs were administrated for treatment by subcutaneous injection. After the 8th day, blood was taken and was centrifuged, the supernatant was taken, and the content of TGF-β1 in serum was detected.

[5] = system: mice with skin fibrosis; experiment: Bleomycin-induced skin fibrosis model; format: in vivo, C57/BL black mice; conditions: C57/BL mice, bleomycin s.c. 28 days; 10 mg/kg s.c. twice a day
Method: Male C57/BL black mice aged 6-8 weeks, purchased from Nanjing Qinglong Mountain Animal Farm. Bleomycin (10 μg/mL) was injected subcutaneously every day for 28 days to form skin fibrosis. During the modeling period, the administration groups were given polypeptide drugs twice a day for treatment. After modeling, the mice were killed on the next day, and the skin tissue of the mouse back was taken to detect the content of HYP in the skin tissue. [table]

[6] = system: Streptococcus pneumoniae; experiment: Mouse pneumonia model, bacterial pneumonia; format: in vivo, BALB/C mice; parameters: unit not given here; conditions: nasal drip, average values + standard deviation
Description: (§1) A mouse pneumonia model was successfully established by using a nasal drip method. BALB/C mice with a body weight of 18-24 g were selected, and then anesthetized with ether on day 0, day 1 and day 2, respectively, prepared Streptococcus pneumoniae bacteria solution, adenovirus concentrated solution, Mycoplasma pneumoniae, Chlamydia pneumoniae, protozoa and pneumonia fungi were slowly dropped into the nasal cavity of the mice, so that the bacteria solutions entered the trachea and bronchi, and the bacteria solutions were prevented from flowing into the esophagus during the operation to avoid inactivation of the bacteria solutions, so that the mouse pneumonia model was established. After the model was successfully established, the polypeptide according to the present disclosure was administered, as shown in FIG. 9 and Table 7. […] The experimental results are represented on the basis of average values+standard deviation.

[7] = system: adenovirus; experiment: Mouse pneumonia model, viral pneumonia; format: in vivo, BALB/C mice; parameters: unit not given here; conditions: nasal drip, average values + standard deviation
Description: as §1

[8] = system: Mycoplasma pneumoniae; experiment: Mouse pneumonia model, mycoplasma pneumonia; format: in vivo, BALB/C mice; parameters: unit not given here; conditions: nasal drip, average values + standard deviation
Description: as §1

[9] = system: Chlamydia pneumoniae; experiment: Mouse pneumonia model, chlamydia pneumonia; format: in vivo, BALB/C mice; parameters: unit not given here; conditions: nasal drip, average values + standard deviation
Description: as §1

[10] = system: protozoa; experiment: Mouse pneumonia model, protozoal pneumonia; format: in vivo, BALB/C mice; parameters: unit not given here; conditions: nasal drip, average values + standard deviation
Description: as §1

[11] = system: pneumonia fungi; experiment: Mouse pneumonia model, fungal pneumonia; format: in vivo, BALB/C mice; parameters: unit not given here; conditions: nasal drip, average values + standard deviation
Description: as §1

[12] = system: multiple pulmonary infections; experiment: Mouse pneumonia model, pneumonia caused by pulmonary infections; format: in vivo, BALB/C mice; parameters: unit not given here; conditions: nasal drip, average values + standard deviation
Description: as §1

[13] = bleomycin-induced pulmonary fibrosis

Molecule	content of ALT in serum, difference from model group [1]	content of AST in serum, difference from model group [1]	content of HYP in the liver tissue, difference from model group [1]	Survival rate (%) [2] [%]	content of HYP in lung tissues, difference from model group [2, 13]	content of TGF-β1 in serum, difference from model group [2, 13]	content of TGF-β1 in serum, difference from model group [3]	content of TGF-β1 in serum, difference from model group [4]	content of HYP in the skin tissue, difference from model group [5]	Inhibitory effect on pulmonary infections: Bacterial pneumonia [6]	Inhibitory effect on pulmonary infections: Viral pneumonia [7]	Inhibitory effect on pulmonary infections: Mycoplasma pneumonia [8]	Inhibitory effect on pulmonary infections: Chlamydia pneumonia [9]	Inhibitory effect on pulmonary infections: Protozoal pneumonia [10]	Inhibitory effect on pulmonary infections: Fungal pneumonia [11]	Inhibitory effect on pulmonary infections: Pneumonia caused by pulmonary infections [12]	reduction of HYP in lung tissues compared with the positive drug ([2]; bleomycin-induced pulmonary fibrosis, comparison with Nintedanib)
COc1cc2c(c(OC)c1OC)-c1ccc(OC)c(=O)cc1[C@@H](NC(C)=O)CC2 [Colchicine, reference compound]	significantly lower than those in the model group	highly significantly different from the model group (** P<0.01)	highly significantly different from the model group (*** P<0.001)														
COC(=O)c1ccc2c(c1)NC(=O)/C2=C(\Nc1ccc(N(C)C(=O)CN2CCN(C)CC2)cc1)c1ccccc1 [Nintedanib, reference compound]				85.7	highly significantly different from the model group (** P<0.01)	highly significantly different from the model group (*** P<0.001)											
PRCWCGEGGGGIVRRADRAAVPGGGGRGD (cysteine pairing not given here) [Polypeptide III]		highly significantly different from the model group (*** P<0.001)	highly significantly different from the model group (*** P<0.001)	85.7	significantly different from the model group (*P<0.05)	highly significantly different from the model group (*** P<0.001)	highly significantly different from the model group (** P<0.01)	highly significantly different from the model group (** P<0.01)	highly significantly different from the model group (*P<0.05)	47.29 ± 8.76	67.49 ± 9.94	43.93 ± 5.53	56.40 ± 5.49	64.29 ± 8.70	62.88 ± 5.94	56.81 ± 3.13	
PRCWRGEGGGGIAVVRRADRAPGGGGRGD [Polypeptide I]		highly significantly different from the model group (*** P<0.001)	highly significantly different from the model group (*** P<0.001)	85.7	highly significantly different from the model group (*** P<0.001)	highly significantly different from the model group (*** P<0.001)	highly significantly different from the model group (*** P<0.001)	highly significantly different from the model group (** P<0.01)	highly significantly different from the model group (** P<0.01)	34.83 ± 7.95	50.00 ± 6.84	36.48 ± 5.55	37.18 ± 7.46	48.16 ± 5.46	47.54 ± 9.68	47.52 ± 7.88	better effects than the positive drug
PRCYCGEGGGGIVRRADRAAVPGGGGRGD (cysteine pairing not given here) [Polypeptide IV]		highly significantly different from the model group (*** P<0.001)	highly significantly different from the model group (*** P<0.001)	92.9	highly significantly different from the model group (** P<0.01)	highly significantly different from the model group (** P<0.01)	highly significantly different from the model group (*** P<0.001)	highly significantly different from the model group (*P<0.05)	highly significantly different from the model group (*P<0.05)	43.69 ± 8.66	70.33 ± 9.27	41.20 ± 7.30	45.86 ± 5.22	62.16 ± 3.28	53.22 ± 4.14	50.99 ± 6.88	
Penicillin [reference compound]										37.05 ± 4.35	48.07 ± 2.07	39.78 ± 5.23	32.57 ± 3.13	40.34 ± 3.02	36.87 ± 2.82	39.56 ± 4.35	
